Earlier results in US7662360B2, “Conjugates of N-hydroxypropymethacrylamide-methacrylate copolymer with nuclide activation agent and/or anti-cancer compounds” (Psimei Pharmaceuticals PLC, priority 2002, dated 2010).

Settings: dose BPA 900-1200 mg/kg (30 mg/ml), CuTCPH 200 mg/kg (6 mg/ml), BSH dose not given

Row | Absolute tumour concentration [µg/g] | Compound
1 | 16.5 | N[C@@H](Cc1ccc(B(O)O)cc1)C(=O)O [BPA, 4-dihydroxyborylphenylalanine]
2 | 6.9 | sodium mnercaptoundecahydrododecaborate [BSH]
